Measured values taken from patent publication US12312359B2 (Vitae Pharmaceuticals, LLC, priority 2016, dated 2025).

Key:
[1] = biological target: T1, biotinylated wild-type menin and MLL-AF9 fusion protein (menin/MLL binding) (Homo sapiens, UniProt O00255); assay: Assay 1: menin/MLL binding AlphaLISA assay, wild-type menin; conditions: Table 30; column head does not say wild-type or mutated menin
T1 construct: made in house; host or cells: menin: E. coli; MLL-AF9-FLAG: HEK293 cells, used as cleared lysate
T1 sequence (O00255 1-610): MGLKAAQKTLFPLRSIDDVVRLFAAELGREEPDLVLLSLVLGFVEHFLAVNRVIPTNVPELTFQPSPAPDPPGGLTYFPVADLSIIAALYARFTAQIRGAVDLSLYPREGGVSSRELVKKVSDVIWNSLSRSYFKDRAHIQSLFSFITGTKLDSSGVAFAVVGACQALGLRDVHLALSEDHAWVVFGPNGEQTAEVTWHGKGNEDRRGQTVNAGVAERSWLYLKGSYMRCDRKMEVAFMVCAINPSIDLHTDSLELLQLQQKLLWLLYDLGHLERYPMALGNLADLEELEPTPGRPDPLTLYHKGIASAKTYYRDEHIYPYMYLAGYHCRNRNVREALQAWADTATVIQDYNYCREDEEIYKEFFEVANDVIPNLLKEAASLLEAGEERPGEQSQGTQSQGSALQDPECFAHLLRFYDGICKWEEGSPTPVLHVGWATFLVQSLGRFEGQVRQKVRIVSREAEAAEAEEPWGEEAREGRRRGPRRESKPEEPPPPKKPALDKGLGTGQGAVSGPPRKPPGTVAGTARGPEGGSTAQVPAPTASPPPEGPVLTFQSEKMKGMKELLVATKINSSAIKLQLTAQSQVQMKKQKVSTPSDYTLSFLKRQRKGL
Procedure, shortened: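 Compound was preincubated 30 min at room temperature with biotinylated menin (5 nM) and MLL-AF9-FLAG lysate from HEK293 cells, pH 7.4 buffer with 5% DMSO and DTT. Bead-based Alpha signal after 60 min with streptavidin donor and anti-FLAG acceptor beads; four-parameter logistic fit gave IC50.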

[2] = tested on: human acute monocytic leukemia cell line MV-4-11; assay: Assay 2: cell proliferation assay (ATP quantitation, CellTiter-Glo), MV-4-11; type: cell-based; conditions: MV-4-11 cells
Procedure, shortened: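 MV-4-11 cells, 1.67×10^4 per well in medium with 10% FBS, were exposed to compound for 72 h at 37° C., 5% CO2; HL-60 cells served as toxicity control. Proliferation read as ATP content by CellTiter-Glo luminescence.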

Q: Which IC50 [1] does the source give for `CC(=O)Nc1ccc(CN2C(=O)C3(CCN(c4ncncc4Oc4ccc(F)cc4C(=O)N(C)C(C)C)C3)N=C2N)cc1` (stereo not drawn) [Example 251, 2-((4-(3-(4-acetamidobenzyl)-2-amino-4-oxo-1,3,7-triazaspiro[4.4]non-1-en-7-yl)pyrimidin-5-yl)oxy)-5-fluoro-N-isopropyl-N-methylbenzamide] here?
A: < 100 nM

Q: What about the EC50 ([2]; Homo sapiens, MV4-11, 72 h) of the same molecule?
A: ≥ 1000 nM

Q: With “5-((7-(5-(4-fluoro-2-(3-fluoro-3-methylbutyl)phenoxy) pyrimidin-4-yl)-2,7-diazaspiro[4.4]nonan-2-yl)methyl)-1H-benzo[d]imidazol-2(3H)-one [Example 35]” as the molecule, how does the IC50 [1] read?
A: < 100 nM

Q: What about the EC50 ([2]; 72 h) of the same molecule?
A: 100 to 1000 nM

Q: For `CC(=O)Nc1ccc(CN2CCC3(CCN(c4ncncc4Oc4ccc(F)cc4-c4ccc(C#N)cc4C4CC4)C3)C2)cc1Cl` (stereo not drawn) [Example 172, N-(2-chloro-4-((7-(5-((4′-cyano-2′-cyclopropyl-5-fluoro-[1,1′-biphenyl]-2-yl)oxy)pyrimidin-4-yl)-2,7-diazaspiro[4.4]nonan-2-yl)methyl)phenyl) acetamide], which IC50 [1] is on record?
A: < 100 nM

Q: What about the EC50 ([2]; Homo sapiens, MV4-11, 72 h) of the same molecule?
A: 100 to 1000 nM

Q: What does the source list for `CC(C)c1ccccc1-c1cc(F)ccc1Oc1cncnc1N1CC2(CN(CC3CCOCC3)C2)C1` [Example 237A, 2-(5-((5-fluoro-2′-isopropyl-[1,1′-biphenyl]-2-yl)oxy)pyrimidin-4-yl)-6-((tetrahydro-2H-pyran-4-yl)methyl)-2,6-diazaspiro[3.3] heptane]?
A: IC50 [1]: < 100 nM; EC50 ([2]; Homo sapiens, MV4-11, 72 h): < 100 nM

Q: For `COCCn1c(=O)[nH]c2cc(CN3CCC4(CCN(c5ncncc5Oc5ccc(F)cc5-c5cncnc5C(C)C)C4)C3)ccc21` (stereo not drawn) [Example 131, 5-((7-(5-(4-fluoro-2-(4-isopropylpyrimidin-5-yl)phenoxy)pyrimidin-4-yl)-2,7-diazaspiro[4.4]nonan-2-yl)methyl)-1-(2-methoxyethyl)-1,3-dihydro-2H-benzo[d]imidazol-2-one], which IC50 [1] is on record?
A: < 100 nM

Q: What about the EC50 ([2]; Homo sapiens, MV4-11, 72 h) of the same molecule?
A: < 100 nM

Q: With `CC(C)N(C(=O)c1cc(F)ccc1Oc1cncnc1N1CCC2(CC(Cc3ccc(F)cc3)N(CCO)C2)C1)C(C)C` (single isomer, unassigned) [Example 26A, 5-fluoro-2-((4-(8-(4-fluorobenzyl)-7-(2-hydroxyethyl)-2,7-diazaspiro[4.4]nonan-2-yl)pyrimidin-5-yl)oxy)-N,N-diisopropylbenzamide] as the molecule, how does the IC50 [1] read?
A: < 100 nM

Q: What about the EC50 ([2]; 72 h) of the same molecule?
A: 100 to 1000 nM

Q: `CC(C)c1ncncc1-c1cc(F)ccc1Oc1cncnc1N1CC2(CC(NCc3ccccc3)CO2)C1` (stereo not drawn) [Example 159, N-benzyl-2-(5-(4-fluoro-2-(4-isopropylpyrimidin-5-yl)phenoxy)pyrimidin-4-yl)-5-oxa-2-azaspiro[3.4]octan-7-amine] was tested. Which IC50 [1] did it give?
A: < 100 nM

Q: And the EC50 ([2]; Homo sapiens, MV4-11, 72 h)?
A: 100 to 1000 nM

Q: With `CCN(C(=O)c1cc(F)ccc1Oc1cncnc1N1CC2(CCN(C[C@H]3CC[C@H](NS(=O)(=O)CC)CC3)CC2)C1)C(C)C` [Example 252, N-Ethyl-2-((4-(7-(((1r,4r)-4-(ethylsulfonamido)cyclohexyl)methyl)-2,7-diazaspiro[3.5]nonan-2-yl)pyrimidin-5-yl)oxy)-5-fluoro-N-isopropylbenzamide] as the molecule, how does the IC50 [1] read?
A: < 100 nM

Q: What about the EC50 ([2]; Homo sapiens, MV4-11, 72 h) of the same molecule?
A: < 100 nM

Q: Which results are given for `Fc1ccc(Oc2cncnc2N2CC3(CN(CC4CCOCC4)C3)C2)c(-c2cccnc2C2CC2)c1` [Example 177, 2-(5-(2-(2-cyclopropylpyridin-3-yl)-4-fluorophenoxy)pyrimidin-4-yl)-6-((tetrahydro-2H-pyran-4-yl)methyl)-2,6-diazaspiro[3.3] heptane]?
A: IC50 [1]: < 100 nM; EC50 ([2]; Homo sapiens, MV4-11, 72 h): < 100 nM

Q: How did the IC50 [1] turn out when `CC(C)c1nccn1-c1cc(F)ccc1Oc1cncnc1N1CCC2(CCN(Cc3ccc4[nH]c(=O)[nH]c4c3)C2)C1` (stereo not drawn) [Example 53, 5-((7-(5-(4-fluoro-2-(2-isopropyl-1H-imidazol-1-yl)phenoxy)pyrimidin-4-yl)-2,7-diazaspiro[4.4]nonan-2-yl)methyl)-1H-benzo[d]imidazol-2(3H)-one] was run?
A: < 100 nM

Q: What about the EC50 ([2]; Homo sapiens, MV4-11, 72 h) of the same molecule?
A: < 100 nM

Q: For `CC(=O)N[C@H]1CC[C@H](CCN2CC3(C2)CN(c2ncncc2Oc2ccc(F)cc2-c2ccc(C#N)cc2C2CC2)C3)CC1` [Example 143, N-((1r,4r)-4-(2-(6-(5-((4′-cyano-2′-cyclopropyl-5-fluoro-[1,1′-biphenyl]-2-yl)oxy)pyrimidin-4-yl)-2,6-diazaspiro[3.3]heptan-2-yl)ethyl)cyclohexyl) acetamide], which IC50 [1] is on record?
A: < 100 nM

Q: What about the EC50 ([2]; Homo sapiens, MV4-11, 72 h) of the same molecule?
A: ≥ 1000 nM

Q: For `CC(C)c1ncncc1-c1cc(F)ccc1Oc1cncnc1N1CC2(CN(C(=O)Cc3ccc(C#N)cc3)C2)C1` [Example 227, 4-(2-(6-(5-(4-fluoro-2-(4-isopropylpyrimidin-5-yl)phenoxy)pyrimidin-4-yl)-2,6-diazaspiro[3.3]heptan-2-yl)-2-oxoethyl)benzonitrile], which IC50 [1] is on record?
A: < 100 nM

Q: What about the EC50 ([2]; Homo sapiens, MV4-11, 72 h) of the same molecule?
A: < 100 nM

Q: Which results are given for `CC(C)(C)OC(=O)N[C@H]1CC[C@H](CN2CCC3(CCN(c4ncncc4Oc4ccc(F)cc4OC4CCCC4)C3)C2)CC1` (stereo partly drawn) [Example 147, tert-butyl ((1r,4r)-4-((7-(5-(2-(cyclopentyloxy)-4-fluorophenoxy)pyrimidin-4-yl)-2,7-diazaspiro[4.4]nonan-2-yl)methyl)cyclohexyl) carbamate]?
A: IC50 [1]: < 100 nM; EC50 ([2]; Homo sapiens, MV4-11, 72 h): ≥ 1000 nM

Q: Which IC50 [1] does the source give for `CC(=O)NCCn1c(=O)[nH]c2cc(CN3CCC4(CCN(c5ncncc5Oc5ccc(F)cc5C(=O)N(C)C(C)C)C4)C3)ccc21` (stereo not drawn) [Example 123, 2-((4-(7-((1-(2-acetamidoethyl)-2-oxo-2,3-dihydro-1H-benzo[d]imidazol-5-yl)methyl)-2,7-diazaspiro[4.4]nonan-2-yl)pyrimidin-5-yl)oxy)-5-fluoro-N-isopropyl-N-methylbenzamide] here?
A: < 100 nM

Q: What about the EC50 ([2]; Homo sapiens, MV4-11, 72 h) of the same molecule?
A: ≥ 1000 nM

Q: What does the source list for `CC(=O)NC(c1cc(F)ccc1Oc1cncnc1N1CCC2(CCN(Cc3ccc4[nH]c(=O)[nH]c4c3)C2)C1)C1CCCC1` (stereo not drawn) [Example 9, N-(cyclopentyl(5-fluoro-2-((4-(7-((2-oxo-2,3-dihydro-1H-benzo[d]imidazol-5-yl)methyl)-2,7-diazaspiro[4.4]nonan-2-yl)pyrimidin-5-yl)oxy)phenyl)methyl)acetamide]?
A: IC50 [1]: < 100 nM; EC50 ([2]; Homo sapiens, MV4-11, 72 h): ≥ 1000 nM

Q: For `Cn1c(=O)[nH]c2ccc(CN3CCC4(CCC(c5ncncc5Oc5ccc(F)cc5Cl)C4)C3)cc21` (stereo not drawn) [Example 27, 6-((7-(5-(2-chloro-4-fluorophenoxy)pyrimidin-4-yl)-2-azaspiro[4.4]nonan-2-yl)methyl)-1-methyl-1H-benzo[d]imidazol-2(3H)-one], which IC50 [1] is on record?
A: < 100 nM

Q: And the EC50 ([2]; Homo sapiens, MV4-11, 72 h)?
A: ≥ 1000 nM

Q: What does the source list for `CC(C)N(C(=O)c1cc(F)ccc1Oc1cncnc1N1CC2(CCN(C[C@H]3CC[C@H](NC(=O)OC(C)(C)C)CC3)CC2)C1)C(C)C` [Example 99A, tert-butyl ((1r,4r)-4-((2-(5-(2-(diisopropylcarbamoyl)-4-fluorophenoxy)pyrimidin-4-yl)-2,7-diazaspiro[3.5]nonan-7-yl)methyl)cyclohexyl)carbamate]?
A: IC50 [1]: < 100 nM; EC50 ([2]; Homo sapiens, MV4-11, 72 h): < 100 nM

Q: Which IC50 [1] does the source give for `CC(C)n1nc(C(F)(F)F)cc1-c1cc(F)ccc1Oc1cncnc1N1CCC2(CCN(Cc3ccc4[nH]c(=O)[nH]c4c3)C2)C1` (stereo not drawn) [Example 217, 5-((7-(5-(4-fluoro-2-(1-isopropyl-3-(trifluoromethyl)-1H-pyrazol-5-yl)phenoxy)pyrimidin-4-yl)-2,7-diazaspiro[4.4]nonan-2-yl)methyl)-1,3-dihydro-2H-benzo[d]imidazol-2-one] here?
A: < 100 nM

Q: What about the EC50 ([2]; Homo sapiens, MV4-11, 72 h) of the same molecule?
A: < 100 nM
